Legend:
HBV = assay: Inhibitory effect on HBV infection in infection model HepG2-hNTCP 2B1 (drug before infection); format: cell-based, hepatitis B virus; conditions: 1, 5, 25 μM, drug from 24 h before infection to day 8, compared with blank group
From the text: The human sodium-taurocholate cotransporting polypeptide (hNTCP) gene and the red fluorescent protein (mCherry) gene were constructed in a bicistronic expression cassette regulated by tetracycline-inducible promoter, the expression cassette was stably integrated into HepG2-Tet On cells by using a lentiviral system, a stable cell line HepG2-hNTCP 2B1 with high expression of hNTCP was obtained by using flow cytometry sorting technology, and this cell model supported HBV infection and generated HBV-related indicators. (For the construction method of this cell model, please refer to: Ya-Li Zhang, Ying Gao, Jia-Li Cao, Jing-Hua Zhao, Tian-Ying Zhang, ChuanLai Yang, Hua-Long Xiong, Ying-Bin Wang, Shan-Hai Ou, Tong Cheng, Chang-Rong Chen, Quan Yuan & Ning-Shao Xia (2019), Robust in vitro assay for analyzing the neutralization activity of serum specimens against hepatitis B virus, Emerging Microbes & Infections, 8:1, 724-733, DOI: 10.1080/22221751.2019.1619485).
This experiment was carried out in a 24-well culture plate.
About 1.5×10^5 HepG2-hNTCP 2B1 cells were plated in each well, and 500 μL of medium B was added. After the cells adhered, medium A was used for replacement to perform the induction with Doxycycline during the whole experiment.
After 72 hours of the induction with Doxycycline, 500 μL of drug-containing medium A was added to each well to perform drug treatment for 24 h, and then the cells were infected with HBV, the virus amount for infection per well was 100 MOI. Before infection, HBV solution was obtained by diluting HBV in medium C, and the infection volume was 250 μL per well. […]
HBsAg (chemiluminescence enzyme immunoassay (CLEIA), product standard number: YZB/Guo 0346-2014) and HBeAg (enzyme-linked immunosorbent assay (ELISA), product standard number: YZB/Guo 0216-2013) were detected using the Beijing Wantai Company's detection kits, and the specifical detection operations were carried out according to the detection methods described in the instructions in the kits.
After the collected cells were washed with PBS, automated extraction was performed on a nucleic acid extraction workstation (purchased from GenMagBio, model: DOF-9696) using a viral DNA & RNA extraction kit (Beijing GenMagBio) (for the extraction procedure, please refer to the instrument manual) to obtain HBV DNA. The HBV DNA was quantified by probe real-time fluorescent quantitative PCR, in which the reagent used was Premix Ex Taq™ (Takara), the instrument used was Roche's LightCycler® 96, the primer sequences used for fluorescence quantification were shown in Table 1, and the fluorescence quantitative reaction system was shown in Table 2. […]

HepaRG M14a = assay: Safety assessment, CCK-8 cell activity, HepaRG M14a; format: cell-based; conditions: 1 μM, 5 μM and 25 μM, 6 days treatment
Experimental: This experiment was carried out in a 96-well culture plate, with 8×10^4 corresponding cells plated in each well, and the corresponding medium volume was 100 μL, in which each drug to be tested in the HepG2-hNTCP 2B1, HepaRG M14A and primary hepatocyte experimental groups had three final concentrations of 1 μM, 5 μM and 25 μM, each drug to be tested in the HepAD38 cell experimental group had two final concentrations of 1 μM and 5 μM (the drug was diluted with the corresponding medium to the final concentrations, specifically please refer to Example 1, Example 2, Example 4 and Example 5), and to the blank group the same volume of culture medium without drug was added. After the cells had grown to a suitable density, drug was added to perform treatment for 6 days, during which, the medium was changed every two days with fresh drug-containing medium. After the drug treatment, 110 μL of medium containing Beyotime CCK-8 cell activity detection reagent (purchased from Beyotime, Art. No. C0038) (the volume ratio of medium to CCK-8 reagent was 100:10) was used for replacement, the cells were incubated at 37° C. for 30 min, and then all the supernatant was collected for detection of absorbance. The absorbance value was read on PHOMO microplate reader purchased from Zhengzhou Autobio.

[1] = p<0.05, dose-dependent in some extent

CC1(C)CCC(C)(C)c2cc(Cn3cccn3)c(/C=C/c3ccc(C(=O)O)cc3)cc21 [Palovarotene]
level of HBV cccDNA (HBV; p<0.0001, dose-dependent in some extent): effectively inhibit
level of intracellular HBV DNA (HBV; p<0.001, dose-dependent in some extent): effectively inhibit
level of HBeAg in the cell supernatant (HBV; [1]): effectively inhibit
level of HBsAg in the cell supernatant (HBV; [1]): effectively inhibit
CCK-8 absorbance value (cell activity) vs blank group (HepaRG M14a): not significantly different

Source: patent US12569468B2, “Use of palovarotene in treatment against HBV virus” (YANG SHENG TANG COMPANY, LTD., priority 2020, dated 2026)
